pIC50: −log10 of the molar value. Read-outs that look alike come from different tables or passages of the source.
Assays:
Format in all cases: cell-based, human
MX-1 (breast carcinoma) = test: Cytotoxicity/growth inhibition assay, MX-1; details: read-out: IC50 (MX-1)
Outline: (§1)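 Test compounds in DMSO (0.1–200 μM; final DMSO 0.5%) added to freshly diluted cells (3×10^3 cells/mL MX-1 and DLD-1, 6×10^3 cells/mL LNCap), triplicate wells. Cultured ~three doubling times (3 days MX-1, 4 days DLD-1/LNCap). CellTiter-Glo luminescence, 15 min room temperature; growth expressed as % of DMSO solvent control.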

[1] = test system: DLD-1 (colorectal adenocarcinoma); test: Cytotoxicity/growth inhibition assay, DLD-1; details: read-out: IC50 (DLD-1)
Outline: as §1

[2] = test system: LNCap (prostate carcinoma); test: Cytotoxicity/growth inhibition assay, LNCap; details: read-out: IC50 (LNCap)
From the text: The human cancer cell lines DLD-1 (colorectal adenocarcinoma), LNCap (prostate carcinoma), and OVCAR-3 (ovarian carcinoma) were obtained from the American Type Culture Collection, Manassas, Va., U.S.A., and HL-60 (promyeloid myelocytic leukemia), MX-1 (breast carcinoma), P388, and P388ADR from the National Cancer Institute, Bethesda, Md., U.S.A. Carboplatin, doxorubicin, and melphalan were obtained from Sigma-Aldrich Chemical Company, St. Louis, Mo., U.S.A. The CellTiter-Glo assay kit was obtained from Promega Corporation, Madison, Wis., U.S.A., and the Cellular DNA Cytometric Analysis Reagent Kit from Roche Diagnostics Corporation, Indianapolis, Ind., U.S.A. Lambda DNA was obtained from New England Biolabs, Beverly, Mass., U.S.A., and SYBR-Gold from Molecular Probes, Inc., Eugene, Oreg., U.S.A. The DNeasy Tissue Kit was obtained from Qiagen Inc., Valencia, Calif., U.S.A., and AmpliTaq Gold DNA polymerase and PCR reagents from Applied Biosystems, Foster City, Calif., U.S.A. All products were used in accordance with manufacturer's directions. All assays were conducted in triplicate wells, with dimethyl sulfoxide (DMSO) solvent control. The extent of cell growth was expressed as a percentage of the signal from the solvent control wells.
Log-phase cells were trypsinized, collected by centrifugation, and resuspended in a small volume of fresh medium, and the density of viable cells was determined following Trypan Blue staining. Cells were diluted in fresh media (3×10^3 cells/mL for MX-1, 3×10^3 cells/mL for DLD-1, and 6×10^3 cells/mL for LNCap cells), the test compounds (concentrations between 0.1 and 200 μM, dissolved in DMSO, 50 μL) added immediately after dilution to achieve a final DMSO concentration of 0.5%, then the suspensions added at 150 μL/well to 96-well plates, and incubated for several hours to allow attachment in the case of adherent cells. The cells were cultured for approximately three doubling times (3 days for MX-1 and 4 days for DLD-1 and LNCap). The cells were then collected by centrifugation, and 100 μL of the culture supernatant was replaced by the CellTiter-Glo reagent. After incubation for 15 minutes at room temperature, and the plate was read with a luminometer.

[3] = MX-1 cells, 3 days culture, CellTiter-Glo, 0.1-200 μM tested
[4] = DLD-1 cells, 4 days culture, CellTiter-Glo, 0.1-200 μM tested
[5] = LNCap cells, 4 days culture, CellTiter-Glo, 0.1-200 μM tested

Row | SMILES | pIC50 (MX-1 (breast carcinoma); [3]) | pIC50 [1, 4] | pIC50 [2, 5] | pIC50 (MX-1 (breast carcinoma); Homo sapiens, MX1, 72 h) | pIC50 ([1]; Homo sapiens, DLD-1, 96 h) | pIC50 ([2]; Homo sapiens, LNCaP, 96 h)
1 | O=[N+]([O-])c1cc(CS(=O)(=O)CCOP(=O)(N(CCCl)CCCl)N(CCCl)CCCl)cc(CS(=O)(=O)CCOP(=O)(N(CCCl)CCCl)N(CCCl)CCCl)c1 [Compound 16B] | 5.54 | 5.35 | 5.04 | – | – | –
2 | CC(C)(C)OC(=O)CNC(=O)CS(=O)(=O)CCOP(=O)(N(CCCl)CCCl)N(CCCl)CCCl [Compound 38A] | 5.10 | 5.12 | 4.63 | – | – | –
3 | CCC(C)CS(=O)(=O)CCOP(=O)(N(CCCl)CCCl)N(CCCl)CCCl (stereo not drawn) [Compound 8A] | 4.76 | 5.15 | 4.39 | – | – | –
4 | N[C@@H](CCC(=O)Nc1cccc(CS(=O)(=O)CCOP(=O)(N(CCCl)CCCl)N(CCCl)CCCl)c1)C(=O)O [Compound 147A] | 4.91 | 4.95 | 4.19 | – | – | –
5 | O=P(OCCS(=O)(=O)Cc1ccc(Cl)c(Cl)c1)(N(CCCl)CCCl)N(CCCl)CCCl [Compound 134A] | 5.82 | 5.92 | 5.32 | – | – | –
6 | CC(C)NC(=O)[C@H](CS(=O)(=O)CCOP(=O)(N(CCCl)CCCl)N(CCCl)CCCl)NS(=O)(=O)c1ccccc1 [Compound 92A] | 4.83 | 5.14 | 4.44 | – | – | –
7 | CC(=O)NC(C(=O)O)C(C)(C)S(=O)(=O)CCOP(=O)(N(CCCl)CCCl)N(CCCl)CCCl (stereo not drawn) [Compound 74A] | 4.33 | 4.57 | ≤ 3.70 | – | – | –
8 | N#CCNC(=O)c1ccc(CS(=O)(=O)CCOP(=O)(N(CCCl)CCCl)N(CCCl)CCCl)cc1 [Compound 164A] | 4.97 | 5.24 | 4.34 | – | – | –
9 | CC(C)(C)S(=O)(=O)CCOP(=O)(N(CCCl)CCCl)N(CCCl)CCCl [Compound 7A] | 4.69 | 4.66 | 3.78 | – | – | –
10 | O=P(OCCS(=O)(=O)c1ccc(C(F)(F)F)cc1)(N(CCCl)CCCl)N(CCCl)CCCl [Compound 109A] | 5.96 | 6.22 | 5.11 | – | – | –
11 | O=C(Nc1cc(CS(=O)(=O)CCOP(=O)(N(CCCl)CCCl)N(CCCl)CCCl)cc(CS(=O)(=O)CCOP(=O)(N(CCCl)CCCl)N(CCCl)CCCl)c1)c1cccnc1 [Compound 22B] | 5.15 | 5.60 | 4.39 | – | – | –
12 | O=P(OCCS(=O)(=O)Cc1ccccn1)(N(CCCl)CCCl)N(CCCl)CCCl [Compound 181A] | 5.08 | 5.13 | 4.58 | – | – | –
13 | O=C(NCCCN1CCOCC1)c1ccc(CS(=O)(=O)CCOP(=O)(N(CCCl)CCCl)N(CCCl)CCCl)cc1 [Compound 175A] | 4.74 | 4.96 | 4.19 | – | – | –
14 | CC(C)NC(=O)[C@@H](N)CS(=O)(=O)CCOP(=O)(N(CCCl)CCCl)N(CCCl)CCCl [Compound 89A] | 4.65 | 5.07 | 3.85 | – | – | –
15 | CNC(=O)c1ccc(CS(=O)(=O)CCOP(=O)(N(CCCl)CCCl)N(CCCl)CCCl)cc1 [Compound 168A] | 5.10 | 5.24 | 4.62 | – | – | –
16 | O=C(CS(=O)(=O)CCOP(=O)(N(CCCl)CCCl)N(CCCl)CCCl)NC(Cc1ccccc1)C(=O)O (stereo not drawn) [Compound 26A] | 4.53 | 5.08 | 4.11 | – | – | –
17 | O=P(OCCS(=O)(=O)Cc1ccccc1CS(=O)(=O)CCOP(=O)(N(CCCl)CCCl)N(CCCl)CCCl)(N(CCCl)CCCl)N(CCCl)CCCl [Compound 13B] | 5.72 | 5.64 | 5.33 | – | – | –
18 | Cc1cccc(CS(=O)(=O)CCOP(=O)(N(CCCl)CCCl)N(CCCl)CCCl)c1 [Compound 129A] | 5.15 | 5.27 | 4.79 | – | – | –
19 | CS(=O)(=O)N[C@@H](CS(=O)(=O)CCOP(=O)(N(CCCl)CCCl)N(CCCl)CCCl)C(=O)O [Compound 104A] | 4.60 | 4.70 | ≤ 3.70 | – | – | –

Row | SMILES | pIC50 (MX-1 (breast carcinoma); [3]) | pIC50 [1, 4] | pIC50 [2, 5] | pIC50 (MX-1 (breast carcinoma); Homo sapiens, MX1, 72 h) | pIC50 ([1]; Homo sapiens, DLD-1, 96 h) | pIC50 ([2]; Homo sapiens, LNCaP, 96 h)
20 | CCNC(=O)c1ccc(CS(=O)(=O)CCOP(=O)(N(CCCl)CCCl)N(CCCl)CCCl)cc1 [Compound 163A] | 5.32 | 5.32 | 4.55 | – | – | –
21 | CS(=O)(=O)N[C@@H](CS(=O)(=O)CCOP(=O)(N(CCCl)CCCl)N(CCCl)CCCl)C(=O)N1CCN(C(=O)c2ccco2)CC1 [Compound 98A] | 4.55 | 5.00 | 3.84 | – | – | –
22 | O=P(OCCS(=O)(=O)CCOP(=O)(N(CCCl)CCCl)N(CCCl)CCCl)(N(CCCl)CCCl)N(CCCl)CCCl [Compound 1C, di[2-[[bis[bis(2-chloroethyl)amino]phosphinyl]oxy]ethyl]sulfone] | – | – | – | 6.52 | 6.52 | 5.85
23 | O=P(OCCS(=O)(=O)c1ccccc1S(=O)(=O)CCOP(=O)(N(CCCl)CCCl)N(CCCl)CCCl)(N(CCCl)CCCl)N(CCCl)CCCl [Compound 10B] | 4.97 | 5.21 | 5.72 | – | – | –
24 | O=C(O)c1ccccc1S(=O)(=O)CCOP(=O)(N(CCCl)CCCl)N(CCCl)CCCl [Compound 118A] | 4.43 | 4.96 | ≤ 3.70 | – | – | –
25 | N#Cc1ccc(S(=O)(=O)N[C@@H](CS(=O)(=O)CCOP(=O)(N(CCCl)CCCl)N(CCCl)CCCl)C(=O)N2CCN(C(=O)c3ccco3)CC2)cc1 [Compound 102A] | 4.70 | 5.04 | 4.09 | – | – | –
26 | O=C(c1ccco1)N1CCN(C(=O)[C@H](CS(=O)(=O)CCOP(=O)(N(CCCl)CCCl)N(CCCl)CCCl)NS(=O)(=O)c2ccccc2)CC1 [Compound 93A] | 4.71 | 4.88 | 4.23 | – | – | –
27 | N#Cc1ccc(S(=O)(=O)N[C@@H](CS(=O)(=O)CCOP(=O)(N(CCCl)CCCl)N(CCCl)CCCl)C(=O)N2CCOCC2)cc1 [Compound 100A] | 4.79 | 5.13 | 4.21 | – | – | –
28 | O=P(OCCS(=O)(=O)Cc1ccc(CS(=O)(=O)CCOP(=O)(N(CCCl)CCCl)N(CCCl)CCCl)cc1)(N(CCCl)CCCl)N(CCCl)CCCl [Compound 15B] | 5.85 | 5.62 | 5.36 | – | – | –
29 | CC(C)(C(N)C(=O)O)S(=O)(=O)CCOP(=O)(N(CCCl)CCCl)N(CCCl)CCCl (stereo not drawn) [Compound 75A] | 4.48 | 5.12 | 3.73 | – | – | –
30 | Cc1ncc(CS(=O)(=O)CCOP(=O)(N(CCCl)CCCl)N(CCCl)CCCl)c(CO)c1O [Compound 183A] | 4.74 | 5.31 | 4.38 | – | – | –
31 | CN1CCN(C(=O)CS(=O)(=O)CCOP(=O)(N(CCCl)CCCl)N(CCCl)CCCl)CC1 [Compound 22A] | 4.63 | 5.08 | 4.41 | – | – | –
32 | Cc1ccc(S(=O)(=O)CCOP(=O)(N(CCCl)CCCl)N(CCCl)CCCl)cc1 [Compound 107A] | 5.60 | 5.80 | 4.74 | – | – | –
33 | O=P(OCCS(=O)(=O)c1nc2ccccc2s1)(N(CCCl)CCCl)N(CCCl)CCCl [Compound 121A] | 5.59 | 5.92 | 5.07 | – | – | –
34 | O=C(NCc1cccnc1)c1ccc(CS(=O)(=O)CCOP(=O)(N(CCCl)CCCl)N(CCCl)CCCl)cc1 [Compound 174A] | 4.73 | 4.84 | 4.25 | – | – | –
35 | N[C@@H](CS(=O)(=O)CCOP(=O)(N(CCCl)CCCl)N(CCCl)CCCl)C(=O)N1CCN(C(=O)c2ccco2)CC1 [Compound 90A] | 4.62 | 4.98 | ≤ 3.70 | – | – | –
36 | CC(=O)NCCS(=O)(=O)CCOP(=O)(N(CCCl)CCCl)N(CCCl)CCCl [Compound 17A] | 5.20 | 5.38 | 4.86 | – | – | –
37 | O=C(NCc1ccccc1)[C@H](CS(=O)(=O)CCOP(=O)(N(CCCl)CCCl)N(CCCl)CCCl)NS(=O)(=O)c1ccccc1 [Compound 91A] | 4.97 | 5.32 | 4.48 | – | – | –
38 | CC(C)(C)c1ccc(S(=O)(=O)CCOP(=O)(N(CCCl)CCCl)N(CCCl)CCCl)cc1 [Compound 114A] | 5.33 | 5.72 | 5.09 | – | – | –

From patent publication US8093231B2, “Sulfonylethyl phosphorodiamidates” (Telik, Inc., priority 2004, dated 2012)
